Article PMC12266748, “A Xanthine Derivative With Novel Heat Shock Protein 90‐Alpha Inhibitory and Senolytic Properties” (Aging Cell, 2025)

Tests used:
[1] = test system: Drosophila melanogaster; assay: Drosophila melanogaster gene expression analysis (qRT-PCR); assay type: in vivo; conditions: K5 10 μg/mL
Experimental: Total RNA from Drosophila melanogaster was isolated using a TripleXtractor reagent kit (Grisp Research Solution, Porto, Portugal). Gene expression of Dacapo (Dap), Unpaired 2 (Upd2), Unpaired 3 (Upd3), and Glyceraldehyde‐3‐phosphate dehydrogenase 1 (Gapdh1) was analyzed by qRT‐PCR. Details are reported in the extended methods.

[2] = test system: p16-3MR mice; assay: Pilot study in aged p16-3MR mice (safety, bioluminescence, ear biopsy markers, cytokines); assay type: in vivo
Experimental: Sections were prepared from organs and ear biopsies from snap‐frozen tissues and mounted on SuperFrost Plus slides (VWR). SA‐β‐gal staining was performed according to the manufacturer's instructions for the Sigma‐Aldrich‐QIA117 staining kit (Sigma‐Aldrich). Nuclei were counterstained with Nuclear Fast Red (Sigma‐Aldrich), and images were acquired using a Zeiss AxioCam HRc mounted on a Leitz Laborlux S light microscope. The percentage of senescent cells was determined with QuPath v. 0.3.2 (Bankhead et al. [2017]).
All experiments were performed per the European Community Council Directives of 2010/63/UE. The pilot study (PS) investigated safety and potential senolytic efficacy, and the Extended study (ES) investigated functional changes, pathological phenotype, and the principal organ targeted by K5. Protocols were approved according to current Italian law (D.Lgs. n. 26/2014) by OPBA (animal care and health committee) of IRCCS INRCA and by the General Direction of Animal Health and Veterinary Drugs of the Italian Ministry of Health with authorization n°‐137/2021‐PR for PS and authorization n°‐370/2022‐PR for ES. In the PS of p16‐3MR mice (26 months), bioluminescence associated with p16‐expression was monitored before and after treatment, and the health of the mice was longitudinally studied. The ES used geriatric C57BL/6J mice (31 months). Clinical health and physical performance were analyzed before and after K5 treatment. Subsequently, the animals were euthanized, gross necropsies were performed, and organs were collected for further analysis. Detailed protocols are reported in the extended section.
Blood samples were collected from the right retroorbital plexus. Glucose (GLUC), creatinine (CREA), aspartate aminotransferase (AST/GOT), and alanine aminotransferase (ALT/GPT) were determined in EDTA‐plasma by using an automated analyzer (Cobas Mira, Roche) according to the manufacturer's instructions. Cytokines were measured in EDTA‐plasma using the ProcartaPlex Mouse Cytokine & Chemokine Panel 1, 26plex (Thermofisher) and read in the Luminex 200 instrument (Bio‐Rad), following the producer's recommendation.
Total RNA was extracted from ear biopsies using the RNeasy kit (Qiagen) according to the manufacturer's instructions and quantified by NanoDrop. β‐actin, p‐21, and p‐53 gene expression levels were analyzed on a BioRad iQ5 optical RT‐PCR (BioRad).
Experimental animals' bioluminescence imaging (BLI) was performed with an IVIS Spectrum system (PerkinElmer). Mice were intraperitoneally injected with Xenolight RediJect Coelenterazine h (PerkinElmer), and bioluminescent images were obtained with mice in the dorsal and ventral positions; the Living Image software quantified bioluminescence acquired by the CCD camera.
. To explore the safety of K5 and its potential impact on the aging process, p16-3MR mice were longitudinally studied in this pilot experiment. They were monitored once a month until natural death using a non-invasive protocol designed to assess their clinical health and physical performance across various functional domains associated with frailty. Additionally, to provide an initial overview of K5 effects on senescent cells, non-invasive and exploratory analyses (senescence markers in ear biopsies, p16 expression measured by in vivo bioluminescence assay, and circulating cytokine profile) were performed before the start of the treatment (T0) and after 20 days following the end of K5 administration (T1).
Circulating cytokines assay. Blood samples were collected from the right retroorbital plexus of anesthetized mice. Blood samples were deposited in serum separator gel tubes (Microvette CB300, Sarstedt) and centrifuged (1000 × g, 10 min) for serum separation. Concentrations of glucose (GLUC), creatinine (CREA), aspartate aminotransferase (AST/GOT), and alanine aminotransferase (ALT/GPT) were determined in EDTA-plasma by using an automated analyzer (Cobas Mira, Roche) according to the manufacturer's instructions. […]

Structure (SMILES): Cc1ccccc1-n1c(=O)n(Cc2ccccc2)c(=O)c2[nH]cnc21 [Compound K5, 1-benzyl-3-(2-methylphenyl)-7H-purine-2,6-dione]
- Dap relative expression vs controls [1]: no significant difference
- Upd2 relative expression vs controls ([1]; p < 0.05): significantly reduced
- Upd3 relative expression vs controls ([1]; p < 0.05): significantly reduced
- median lifespan of treated animals, females ([2]; 10 mg/kg i.p., p16-3MR mice): 953 ± 35 days
- median lifespan of treated animals, males ([2]; 10 mg/kg i.p., p16-3MR mice): 1097 ± 78 days
- adverse reactions, behavioral stereotypes, mortality after administration ([2]; 10 mg/kg i.p., three injections over three consecutive days): did not induce any adverse reactions
- SA-β-gal activity in ear biopsies ([2]; T1, 10 mg/kg i.p.): reduction
- circulating IL-1β ([2]; T1 vs T0, 10 mg/kg i.p.): trend (p < 0.01) toward decreased
- circulating IL-6 ([2]; T1 vs T0, 10 mg/kg i.p.): reduction
- p16 expression by in vivo bioluminescence, ventral and dorsal signals ([2]; T1 vs T0, 10 mg/kg i.p.): significant reduction
- p21 mRNA expression in ear biopsies ([2]; T1 vs T0, 10 mg/kg i.p.): decreasing trend
- p53 mRNA expression in ear biopsies ([2]; T1 vs T0, 10 mg/kg i.p.): reduction in p53 expression at T1 was statistically significant
